According to US9957261B2 (Hoffmann-La Roche Inc., priority 2014, dated 2018):

Experiments:
mouse TAAR1 = mouse TAAR1 (Mus musculus (Mouse), UniProt Q923Y8); test: Radioligand binding assay on mouse TAAR1; conditions: mouse TAAR1, membranes of stably transfected HEK-293 cells; first value of mouse/rat pair
Protocol: (§1) Construction of TAAR Expression Plasmids and Stably Transfected Cell Lines
(§2) For the construction of expression plasmids the coding sequences of human, rat and mouse TAAR 1 were amplified from genomic DNA essentially as described by Lindemann et al.. The Expand High Fidelity PCR System (Roche Diagnostics) was used with 1.5 mM Mg^2+ and purified PCR products were cloned into pCR2.1-TOPO cloning vector (Invitrogen) following the instructions of the manufacturer. PCR products were subcloned into the pIRESneo2 vector (BD Clontech, Palo Alto, Calif.), and expression vectors were sequence verified before introduction in cell lines.
(§3) HEK293 cells (ATCC # CRL-1573) were cultured essentially as described by Lindemann et al. (2005). For the generation of stably transfected cell lines HEK293 cells were transfected with the pIRESneo2 expression plasmids containing the TAAR coding sequences (described above) with Lipofectamine 2000 (Invitrogen) according to the instructions of the manufacturer, and 24 hrs post transfection the culture medium was supplemented with 1 mg/ml G418 (Sigma, Buchs, Switzerland). After a culture period of about 10 d clones were isolated, expanded and tested for responsiveness to trace amines (all compounds purchased from Sigma) with the cAMP Biotrak Enzyme immunoassay (EIA) System (Amersham) following the non-acetylation EIA procedure provided by the manufacturer.
Radioligand Binding Assay on Mouse TAAR1
(§4) Membrane Preparation and Radioligand Binding.
(§5) HEK-293 cells stably expressing mouse TAAR1 were maintained at 37° C. and 5% CO2 in DMEM high glucose medium, containing fetal calf serum (10%, heat inactivated for 30 min at 56° C.), penicillin/streptomycin (1%), and 375 μg/ml geneticin (Gibco). Cells were released from culture flasks using trypsin/EDTA, harvested, washed twice with ice-cold PBS (without Ca^2+ and Mg^2+), pelleted at 1′000 rpm for 5 min at 4° C., frozen and stored at −80° C. Frozen pellets were suspended in 20 ml HEPES-NaOH (20 mM, pH 7.4) containing 10 mM EDTA and homogenized with a Polytron (PT 6000, Kinematica) at 14,000 rpm for 20 s. The homogenate was centrifuged at 48,000×g for 30 min at 4° C. Subsequently, the supernatant was removed and discarded, and the pellet resuspended in 20 ml HEPES-NaOH (20 mM, pH 7.4) containing 0.1 mM EDTA using the Polytron (20 s at 14,000 rpm). This procedure was repeated and the final pellet resuspended in HEPES-NaOH containing 0.1 mM EDTA and homogenized using the Polytron. Typically, aliquots of 2 ml membrane portions were stored at −80° C. With each new membrane batch the dissociation constant (Kd) was determined via a saturation curve. […] Nonspecific binding was defined as the amount of ^3[H]—(S)-4-[(ethyl-phenyl-amino)-methyl]-4,5-dihydro-oxazol-2-ylamine bound in the presence of 10 μM unlabeled ligand. All compounds were tested at a broad range of concentrations (10 pM to 10 μM) in duplicates. […] The 96 deep well plates were incubated for 1 hr at 4° C. Incubations were terminated by rapid filtration through Unifilter-96 plates (Packard Instrument Company) and glass filters GF/C (Perkin Elmer) presoaked for 1 hr in polyethylenimine (0.3%) and washed 3 times with 1 ml of cold binding buffer. After addition of 45 μl of Microscint 40 (PerkinElmer) the Unifilter-96 plate was sealed and after 1 hr the radioactivity counted using a TopCount Microplate Scintillation Counter (Packard Instrument Company).

rat TAAR1 = rat TAAR1 (Rattus norvegicus (Rat), UniProt Q923Y9); test: Radioligand binding assay on rat TAAR1; conditions: rat TAAR1, membranes of stably transfected HEK-293 cells; second value of mouse/rat pair
Protocol: as §1, §2, §3
Radioligand Binding Assay on Rat TAAR1
as §4
as §5, with “rat” for “mouse”, “[H]—(S)-4-[(ethyl-phenyl-amino)-methyl]-4,5-dihydro-oxazol-2-ylamine” for “^3[H]—(S)-4-[(ethyl-phenyl-amino)-methyl]-4,5-dihydro-oxazol-2-ylamine”

Sequence of rat TAAR1 (Q923Y9 whole entry): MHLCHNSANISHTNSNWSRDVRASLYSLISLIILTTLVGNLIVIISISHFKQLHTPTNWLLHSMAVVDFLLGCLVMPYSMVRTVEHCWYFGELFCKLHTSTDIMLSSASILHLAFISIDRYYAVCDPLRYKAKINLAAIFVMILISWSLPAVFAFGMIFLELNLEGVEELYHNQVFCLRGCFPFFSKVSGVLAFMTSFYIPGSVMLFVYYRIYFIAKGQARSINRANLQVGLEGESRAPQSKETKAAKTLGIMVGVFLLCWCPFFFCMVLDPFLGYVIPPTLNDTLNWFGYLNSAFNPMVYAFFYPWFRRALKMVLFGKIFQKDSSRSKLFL
Sequence of mouse TAAR1 (Q923Y8 whole entry): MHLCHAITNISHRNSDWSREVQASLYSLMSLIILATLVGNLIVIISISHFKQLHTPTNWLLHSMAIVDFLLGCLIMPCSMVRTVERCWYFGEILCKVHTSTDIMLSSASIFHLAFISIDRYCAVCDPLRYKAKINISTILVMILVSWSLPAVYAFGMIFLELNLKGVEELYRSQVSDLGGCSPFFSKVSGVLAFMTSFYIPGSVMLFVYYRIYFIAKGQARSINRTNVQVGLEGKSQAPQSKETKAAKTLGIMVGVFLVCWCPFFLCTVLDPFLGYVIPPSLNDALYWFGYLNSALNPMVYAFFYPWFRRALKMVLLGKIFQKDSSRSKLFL

SMILES | Ki (mouse TAAR1) [µM] | Ki (rat TAAR1) [µM]
N[C@H]1CCc2cc(NC(=O)c3cnc(Cl)c(Cl)c3)ccc2C1 [Example 41, (S)—N-(6-Amino-5,6,7,8-tetrahydronaphthalen-2-yl)-5,6-dichloronicotinamide] | 0.0031 | 0.0031
CCCc1cc(C(=O)Nc2ccc3c(c2)CCC(N)C3)nn1CC(F)F (centres unmarked) [Example 3, N-(6-Amino-5,6,7,8-tetrahydronaphthalen-2-yl)-1-(2,2-difluoroethyl)-5-propyl-1H-pyrazole-3-carboxamide] | 0.0132 | 0.0035
N[C@H]1CCc2cc(NC(=O)c3cc(Cl)nc(Cl)c3)ccc2C1 [Example 46, (S)—N-(6-Amino-5,6,7,8-tetrahydronaphthalen-2-yl)-2,6-dichloroisonicotinamide] | 0.0042 | 0.0022
N[C@H]1CCc2cc(NC(=O)c3ccc(F)c(F)c3)ccc2C1 [Example 42, (S)—N-(6-Amino-5,6,7,8-tetrahydronaphthalen-2-yl)-3,4-difluorobenzamide] | 0.0035 | 0.0019
N[C@H]1CCc2cc(NC(=O)NCc3ccc(Cl)cc3)ccc2C1 [Example 69, (S)-1-(6-Amino-5,6,7,8-tetrahydronaphthalen-2-yl)-3-(4-chlorobenzyl)urea] | 0.0029 | 0.0085
Cc1cc(C(=O)Nc2ccc3c(c2)CC[C@H](N)C3)nc(C(F)(F)F)n1 [Example 7, (S)—N-(6-Amino-5,6,7,8-tetrahydronaphthalen-2-yl)-6-methyl-2-(trifluoromethyl)-pyrimidine-4-carboxamide] | 0.0318 | 0.0198
N[C@H]1CCc2cc(Nc3cccc(OC(F)(F)F)c3)ccc2C1 [Example 61, (S)—N6-(3-(Trifluoromethoxy)phenyl)-1,2,3,4-tetrahydronaphthalene-2,6-diamine] | 0.0071 | 0.0049
N[C@H]1CCc2cc(Nc3cccc(Cl)c3)ccc2C1 [Example 68, (S)—N6-(3-Chlorophenyl)-1,2,3,4-tetrahydronaphthalene-2,6-diamine] | 0.019 | 0.0099
CCc1ccc(NC(=O)c2ccc3c(c2)CCC(N)C3)cc1 (centres unmarked) [Example 56, 6-Amino-N-(4-ethylphenyl)-5,6,7,8-tetrahydronaphthalene-2-carboxamide] | 0.0155 | 0.0456
N[C@H]1CCc2cc(NC(=O)NCc3cccc(OC(F)(F)F)c3)ccc2C1 [Example 63, (S)-1-(6-Amino-5,6,7,8-tetrahydronaphthalen-2-yl)-3-(3-(trifluoromethoxy)benzyl)urea] | 0.002 | 0.0039
NC1CCc2cc(C(=O)Nc3cccc(Cl)c3)ccc2C1 (centres unmarked) [Example 59, 6-Amino-N-(3-chlorophenyl)-5,6,7,8-tetrahydronaphthalene-2-carboxamide] | 0.0018 | 0.0109
COc1cccc(NC(=O)Nc2ccc3c(c2)CC[C@H](N)C3)c1 [Example 67, (S)-1-(6-Amino-5,6,7,8-tetrahydronaphthalen-2-yl)-3-(3-methoxyphenyl)urea] | 0.0075 | 0.0044
CCc1n[nH]c(C(=O)Nc2ccc3c(c2)CC[C@H](N)C3)c1C [Example 51, (S)—N-(6-Amino-5,6,7,8-tetrahydronaphthalen-2-yl)-3-ethyl-4-methyl-1H-pyrazole-5-carboxamide] | 0.0062 | 0.0046
NC1CCc2cc(C(=O)Nc3cnc(C4CC4)nc3)ccc2C1 (centres unmarked) [Example 32, 6-Amino-N-(2-cyclopropylpyrimidin-5-yl)-5,6,7,8-tetrahydronaphthalene-2-carboxamide] | 0.105 | 0.309

Next, values leading:

Ki (mouse TAAR1) [µM] | Ki (rat TAAR1) [µM] | SMILES
0.0026 | 0.0044 | N#Cc1ccc(C(=O)Nc2ccc3c(c2)OC[C@H](N)C3)cc1F [Example 86, (R)—N-(3-Aminochroman-7-yl)-4-cyano-3-fluorobenzamide]
0.003 | 0.0017 | NC1CCc2cc(C(=O)Nc3cccc(OC(F)(F)F)c3)ccc2C1 (centres unmarked) [Example 55, 6-Amino-N-(3-(trifluoromethoxy)phenyl)-5,6,7,8-tetrahydronaphthalene-2-carboxamide]
0.0054 | 0.0039 | NC1CCc2cc(C(=O)Nc3ccc(C(F)(F)F)cc3)ccc2C1 (centres unmarked) [Example 34, 6-Amino-N-(4-(trifluoromethyl)phenyl)-5,6,7,8-tetrahydronaphthalene-2-carboxamide]
0.0082 | 0.0277 | CCOc1[nH]nc(C(=O)Nc2ccc3c(c2)OC[C@H](N)C3)c1C [Example 81, (R)—N-(3-Aminochroman-7-yl)-5-ethoxy-4-methyl-1H-pyrazole-3-carboxamide]
0.0035 | 0.0077 | N[C@H]1COc2cc(NC(=O)c3cc(Cl)nc(Cl)c3)ccc2C1 [Example 91, (R)—N-(3-Aminochroman-7-yl)-2,6-dichloroisonicotinamide]
0.0371 | 0.0758 | N[C@H]1COc2cc(NC(=O)c3ncc(C(F)(F)F)cn3)ccc2C1 [Example 84, (R)—N-(3-Aminochroman-7-yl)-5-(trifluoromethyl)pyrimidine-2-carboxamide]
0.0159 | 0.0072 | NC1CCc2cc(NC(=O)c3ccnc(C(F)(F)F)c3)ccc2C1 (centres unmarked) [Example 1, N-(6-Amino-5,6,7,8-tetrahydronaphthalen-2-yl)-2-(trifluoromethyl)isonicotinamide]
0.0008 | 0.0009 | N[C@H]1CCc2cc(C(=O)Nc3cccc(OC(F)(F)F)c3)ccc2C1 [Example 79, (S)-6-Amino-N-(3-(trifluoromethoxy)phenyl)-5,6,7,8-tetrahydronaphthalene-2-carboxamide]
0.0265 | 0.0237 | N[C@H]1CCc2cc(NC(=O)c3ccc(C(F)(F)F)nc3)ccc2C1 [Example 20, (S)—N-(6-Amino-5,6,7,8-tetrahydronaphthalen-2-yl)-6-(trifluoromethyl)nicotinamide]
0.0151 | 0.0023 | CCn1nc(C(=O)Nc2ccc3c(c2)OC[C@H](N)C3)c(Br)c1OCC(F)F [Example 92, (R)—N-(3-Aminochroman-7-yl)-4-bromo-5-(2,2-difluoroethoxy)-1-ethyl-1H-pyrazole-3-carboxamide]
0.0083 | 0.0119 | CCc1n[nH]c(C(=O)Nc2ccc3c(c2)OC[C@H](N)C3)c1C [Example 88, (R)—N-(3-Aminochroman-7-yl)-3-ethyl-4-methyl-1H-pyrazole-5-carboxamide]
